Source: PubChem BioAssay AID2060602 (Molecular Pharmacology Branch, DTP, NCI, 2025)
pIC50: −log10 of the molar value.

Tested on: 648629-189-R-J1-PDC complex spheroids viability
Experiment: Anticancer human tumor 648629-189-R-J1-PDC patient-derived bladder carcinoma cell line growth inhibition [CLK]
Settings: for pIC50: curve of first compound; for viability, T/C: stronger effect = lower value
Procedure, shortened: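 Multi-cell-type spheroids combined patient-derived tumor cells with HUVEC endothelial cells and human mesenchymal stem cells. Paired agents were dosed in half-log steps down from about clinical Cmax, or from 10 microM where Cmax was unknown.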

[1] = second compound 0.0316 µM, first compound 0.0316 µM
[2] = second compound 0.0316 µM, first compound 0.1 µM
[3] = second compound 0.1 µM, first compound 0.0316 µM
[4] = second compound 0.1 µM, first compound 0.1 µM
[5] = second compound 0.316 µM, first compound 0.0316 µM
[6] = second compound 0.316 µM, first compound 0.1 µM
[7] = second compound 1 µM, first compound 0.0316 µM
[8] = second compound 1 µM, first compound 0.1 µM
[9] = second compound 3.16 µM, first compound 0.0316 µM
[10] = second compound 3.16 µM, first compound 0.1 µM
[11] = second compound 10 µM, first compound 0.0316 µM
[12] = second compound 10 µM, first compound 0.1 µM
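Throughout, for viability, T/C: drug exposure lasted seven days before viability readout; 100% = DMSO vehicle control wells.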

CC(C)CC(NC(=O)C(Cc1ccccc1)NC(=O)c1cnccn1)B(O)O (stereo unspecified) + CNC(=O)c1ccc(Nc2nc(OC3CCCC3)c3c(-c4ccc5nc(C)oc5c4)c[nH]c3n2)c(OC)c1
pIC50 (second compound 0.0316 µM): 8.52 | pIC50 (second compound 0.1 µM): 8.66 | pIC50 (second compound 0.316 µM): > 9.02 | pIC50 (second compound 1 µM): > 9.02 | pIC50 (second compound 3.16 µM): > 9.02 | pIC50 (second compound 10 µM): > 9.02 | viability, T/C (second compound 0.0316 µM, first compound 0.000949 µM): 105% | viability, T/C (second compound 0.0316 µM, first compound 0.003 µM): 50.5% | viability, T/C (second compound 0.0316 µM, first compound 0.00949 µM): 1.99% | viability, T/C (second compound 0.0316 µM, first compound 0.03 µM): 0.26% | viability, T/C (second compound 0.0316 µM, first compound 0.0949 µM): 0.18% | viability, T/C (second compound 0.0316 µM, first compound 0.3 µM): 1.59% | viability, T/C (second compound 0.1 µM, first compound 0.000949 µM): 91.4% | viability, T/C (second compound 0.1 µM, first compound 0.003 µM): 35% | viability, T/C (second compound 0.1 µM, first compound 0.00949 µM): 0.64% | viability, T/C (second compound 0.1 µM, first compound 0.03 µM): 0.21% | viability, T/C (second compound 0.1 µM, first compound 0.0949 µM): 0.15% | viability, T/C (second compound 0.1 µM, first compound 0.3 µM): 1.03% | viability, T/C (second compound 0.316 µM, first compound 0.000949 µM): 34.9% | viability, T/C (second compound 0.316 µM, first compound 0.003 µM): 35% | viability, T/C (second compound 0.316 µM, first compound 0.00949 µM): 0.45% | viability, T/C (second compound 0.316 µM, first compound 0.03 µM): 0.28% | viability, T/C (second compound 0.316 µM, first compound 0.0949 µM): 0.76% | viability, T/C (second compound 0.316 µM, first compound 0.3 µM): 0.16% | viability, T/C (second compound 1 µM, first compound 0.000949 µM): 23.6% | viability, T/C (second compound 1 µM, first compound 0.003 µM): 24.1% | viability, T/C (second compound 1 µM, first compound 0.00949 µM): 2.18% | viability, T/C (second compound 1 µM, first compound 0.03 µM): 0.36% | viability, T/C (second compound 1 µM, first compound 0.0949 µM): 0.34% | viability, T/C (second compound 1 µM, first compound 0.3 µM): 1.9% | viability, T/C (second compound 3.16 µM, first compound 0.000949 µM): 28.1% | viability, T/C (second compound 3.16 µM, first compound 0.003 µM): 9.77% | viability, T/C (second compound 3.16 µM, first compound 0.00949 µM): 3.72% | viability, T/C (second compound 3.16 µM, first compound 0.03 µM): 0.62% | viability, T/C (second compound 3.16 µM, first compound 0.0949 µM): 1.49% | viability, T/C (second compound 3.16 µM, first compound 0.3 µM): 0.23% | viability, T/C (second compound 10 µM, first compound 0.000949 µM): 24.2% | viability, T/C (second compound 10 µM, first compound 0.003 µM): 14.2% | viability, T/C (second compound 10 µM, first compound 0.00949 µM): 1.91% | viability, T/C (second compound 10 µM, first compound 0.03 µM): 0.53% | viability, T/C (second compound 10 µM, first compound 0.0949 µM): 1.61% | viability, T/C (second compound 10 µM, first compound 0.3 µM): 1.49%

Cn1ncnc1[C@H]1c2n[nH]c(=O)c3cc(F)cc(c23)N[C@@H]1c1ccc(F)cc1 + CNC(=O)c1ccc(Nc2nc(OC3CCCC3)c3c(-c4ccc5nc(C)oc5c4)c[nH]c3n2)c(OC)c1
pIC50 (second compound 0.0316 µM): < 7.00 | pIC50 (second compound 0.1 µM): < 7.00 | pIC50 (second compound 0.316 µM): > 9.50 | pIC50 (second compound 1 µM): > 9.50 | pIC50 (second compound 3.16 µM): > 9.50 | pIC50 (second compound 10 µM): > 9.50 | viability, T/C (second compound 0.0316 µM, first compound 0.000316 µM): 112% | viability, T/C (second compound 0.0316 µM, first compound 0.001 µM): 98.1% | viability, T/C (second compound 0.0316 µM, first compound 0.00316 µM): 95.4% | viability, T/C (second compound 0.0316 µM, first compound 0.01 µM): 102% | viability, T/C [1]: 81.4% | viability, T/C [2]: 73.6% | viability, T/C (second compound 0.1 µM, first compound 0.000316 µM): 86% | viability, T/C (second compound 0.1 µM, first compound 0.001 µM): 86.3% | viability, T/C (second compound 0.1 µM, first compound 0.00316 µM): 81.5% | viability, T/C (second compound 0.1 µM, first compound 0.01 µM): 83% | viability, T/C [3]: 68.3% | viability, T/C [4]: 75.8% | viability, T/C (second compound 0.316 µM, first compound 0.000316 µM): 25.7% | viability, T/C (second compound 0.316 µM, first compound 0.001 µM): 25.6% | viability, T/C (second compound 0.316 µM, first compound 0.00316 µM): 30% | viability, T/C (second compound 0.316 µM, first compound 0.01 µM): 21% | viability, T/C [5]: 22.4% | viability, T/C [6]: 21.3% | viability, T/C (second compound 1 µM, first compound 0.000316 µM): 18.4% | viability, T/C (second compound 1 µM, first compound 0.001 µM): 18.9% | viability, T/C (second compound 1 µM, first compound 0.00316 µM): 17.2% | viability, T/C (second compound 1 µM, first compound 0.01 µM): 18.1% | viability, T/C [7]: 15.6% | viability, T/C [8]: 12.5% | viability, T/C (second compound 3.16 µM, first compound 0.000316 µM): 19.2% | viability, T/C (second compound 3.16 µM, first compound 0.001 µM): 18.4% | viability, T/C (second compound 3.16 µM, first compound 0.00316 µM): 19.3% | viability, T/C (second compound 3.16 µM, first compound 0.01 µM): 16.3% | viability, T/C [9]: 17% | viability, T/C [10]: 16.6% | viability, T/C (second compound 10 µM, first compound 0.000316 µM): 18.1% | viability, T/C (second compound 10 µM, first compound 0.001 µM): 19.5% | viability, T/C (second compound 10 µM, first compound 0.00316 µM): 20.3% | viability, T/C (second compound 10 µM, first compound 0.01 µM): 17.7% | viability, T/C [11]: 19.4% | viability, T/C [12]: 14.8%

O=C(c1cc(Cc2n[nH]c(=O)c3ccccc23)ccc1F)N1CCN(C(=O)C2CC2)CC1 + CNC(=O)c1ccc(Nc2nc(OC3CCCC3)c3c(-c4ccc5nc(C)oc5c4)c[nH]c3n2)c(OC)c1
pIC50 (second compound 0.0316 µM): < 5.00 | pIC50 (second compound 0.1 µM): < 5.00 | pIC50 (second compound 0.316 µM): > 7.50 | pIC50 (second compound 1 µM): > 7.50 | pIC50 (second compound 3.16 µM): > 7.50 | pIC50 (second compound 10 µM): > 7.50 | viability, T/C [1]: 92.3% | viability, T/C [2]: 101% | viability, T/C (second compound 0.0316 µM, first compound 0.316 µM): 103% | viability, T/C (second compound 0.0316 µM, first compound 1 µM): 106% | viability, T/C (second compound 0.0316 µM, first compound 3.16 µM): 83.3% | viability, T/C (second compound 0.0316 µM, first compound 10 µM): 74.9% | viability, T/C [3]: 93.6% | viability, T/C [4]: 95.1% | viability, T/C (second compound 0.1 µM, first compound 0.316 µM): 89.3% | viability, T/C (second compound 0.1 µM, first compound 1 µM): 86.9% | viability, T/C (second compound 0.1 µM, first compound 3.16 µM): 82.9% | viability, T/C (second compound 0.1 µM, first compound 10 µM): 70.8% | viability, T/C [5]: 26.9% | viability, T/C [6]: 29% | viability, T/C (second compound 0.316 µM, first compound 0.316 µM): 27.1% | viability, T/C (second compound 0.316 µM, first compound 1 µM): 29.1% | viability, T/C (second compound 0.316 µM, first compound 3.16 µM): 28.7% | viability, T/C (second compound 0.316 µM, first compound 10 µM): 27.4% | viability, T/C [7]: 18.8% | viability, T/C [8]: 17.3% | viability, T/C (second compound 1 µM, first compound 0.316 µM): 20.1% | viability, T/C (second compound 1 µM, first compound 1 µM): 17.2% | viability, T/C (second compound 1 µM, first compound 3.16 µM): 17.6% | viability, T/C (second compound 1 µM, first compound 10 µM): 18.6% | viability, T/C [9]: 15.9% | viability, T/C [10]: 18.9% | viability, T/C (second compound 3.16 µM, first compound 0.316 µM): 19% | viability, T/C (second compound 3.16 µM, first compound 1 µM): 20.3% | viability, T/C (second compound 3.16 µM, first compound 3.16 µM): 19% | viability, T/C (second compound 3.16 µM, first compound 10 µM): 19.2% | viability, T/C [11]: 23.8% | viability, T/C [12]: 21.7% | viability, T/C (second compound 10 µM, first compound 0.316 µM): 22% | viability, T/C (second compound 10 µM, first compound 1 µM): 19% | viability, T/C (second compound 10 µM, first compound 3.16 µM): 20.2% | viability, T/C (second compound 10 µM, first compound 10 µM): 21.1%
